In patent publication US12281112B2, “Compounds for inhibiting NLRP3 and uses thereof” (Ventus Therapeutics U.S., Inc., priority 2021, dated 2025):

Columns and labels:
NLRP3 [1] = target: T1, NLRP3 (Homo sapiens, UniProt Q96P20); assay: Human PBMC NLRP3 Assay; assay type: cell-based
Procedure: Human PBMC NLRP3 Assay: Cryopreserved PBMCs were rapidly thawed in a 37° C. water bath for 2 min. […] A count was undertaken using a hemocytometer and adjusted to 2.5×10^5 cells/mL. V-shaped 96-well plates were seeded with 200 μL of PMBCs (5×10^4) per well and subsequently incubated overnight at 37° C. with 5% CO2. Assay Media was then prepared containing 100 ng/ml of LPS. PBMCs were then centrifuged at 1,200 RPM for 5 min, serum containing media was aspirated, and 150 μL/well of Assay Media+LPS was immediately added. Assay Media without LPS was added in the untreated control wells. Cells were then primed with LPS for 4 h at 37° C. with 5% CO2. A concentration response curve (CRC) was prepared of 1000× test compound in 100% DMSO. The CRC was then diluted 1:50 in Assay Media and then further diluted by 1:5× in Assay Media resulting in a final 4×CRC in 0.4% DMSO/Assay Media. 50 μL/well of 4× test compound CRC or vehicle (0.4% DMSO/Assay Media) was then transferred into each well and subsequently incubated for 30 min at 37° C. with 5% CO2. Cells were stimulated by adding 4 μL of 250 mM ATP, using a 250 mM stock prepared in 1 M Hepes without further dilution (for a final concentration of 5 mM), for 1 h at 37° C. with 5% CO2. Plates were then centrifuged at 1200 RPM for 5 min; and 50 μl of the media was transferred to a clean 96-well storage plate for cytokine measurements using the mesoscale platform, and stored at −80° C. until analyzed.

NLRP3 [2] = target: T1, NLRP3; assay: Human whole blood (hWB) NLRP3 Assay; assay type: cell-based; design: Blood is collected from healthy volunteers in heparin lithium tubes; from tissue; host or cells: pooled heparinised whole blood from healthy human volunteers, LPS-primed, ATP-stimulated
Procedure: Blood is collected from healthy volunteers in heparin lithium tubes. • 2. Plate 90 μL of pooled blood per well in 96-well U-bottom plates. • 3. Add 5 uL of 20×LPS (20 ug/mL, final concentration of 1 ug/mL) and mix by gentle pipetting. • 4. Incubate in TC incubator for 4.5 hours. • 5. Add 5 uL of 20× compound or vehicle per well and mix by gentle pipetting. • a. Compounds are diluted 1/50 in HBSS to prepare a 20× dilution curve in 2% DMSO • 6. Incubate for 30 minutes in TC incubator with shaking (450 rpm). • 7. […] Incubate in TC incubator for 30 minutes with shaking (450 rpm). • 9. Centrifuge plate for 10 minutes at 800×g and carefully remove ˜70 μL of plasma. Freeze plasma if required. • 10. Analyze human IL-1b with IL-1b MSD assay (K151TUK) • a.

[3] = human PBMCs primed with LPS 4 h, compound 30 min, ATP 5 mM 1 h, cytokine measurement on mesoscale platform, potency code
[4] = LPS 1 ug/mL 4.5 h, compound 30 min, ATP 5 mM 30 min, IL-1b MSD assay, potency code
[5] = Table 5: fused bicyclic analogs vs monocyclic pyridazines
[6] = Table 6: regioisomer comparison

T1 sequence (Q96P20 whole entry): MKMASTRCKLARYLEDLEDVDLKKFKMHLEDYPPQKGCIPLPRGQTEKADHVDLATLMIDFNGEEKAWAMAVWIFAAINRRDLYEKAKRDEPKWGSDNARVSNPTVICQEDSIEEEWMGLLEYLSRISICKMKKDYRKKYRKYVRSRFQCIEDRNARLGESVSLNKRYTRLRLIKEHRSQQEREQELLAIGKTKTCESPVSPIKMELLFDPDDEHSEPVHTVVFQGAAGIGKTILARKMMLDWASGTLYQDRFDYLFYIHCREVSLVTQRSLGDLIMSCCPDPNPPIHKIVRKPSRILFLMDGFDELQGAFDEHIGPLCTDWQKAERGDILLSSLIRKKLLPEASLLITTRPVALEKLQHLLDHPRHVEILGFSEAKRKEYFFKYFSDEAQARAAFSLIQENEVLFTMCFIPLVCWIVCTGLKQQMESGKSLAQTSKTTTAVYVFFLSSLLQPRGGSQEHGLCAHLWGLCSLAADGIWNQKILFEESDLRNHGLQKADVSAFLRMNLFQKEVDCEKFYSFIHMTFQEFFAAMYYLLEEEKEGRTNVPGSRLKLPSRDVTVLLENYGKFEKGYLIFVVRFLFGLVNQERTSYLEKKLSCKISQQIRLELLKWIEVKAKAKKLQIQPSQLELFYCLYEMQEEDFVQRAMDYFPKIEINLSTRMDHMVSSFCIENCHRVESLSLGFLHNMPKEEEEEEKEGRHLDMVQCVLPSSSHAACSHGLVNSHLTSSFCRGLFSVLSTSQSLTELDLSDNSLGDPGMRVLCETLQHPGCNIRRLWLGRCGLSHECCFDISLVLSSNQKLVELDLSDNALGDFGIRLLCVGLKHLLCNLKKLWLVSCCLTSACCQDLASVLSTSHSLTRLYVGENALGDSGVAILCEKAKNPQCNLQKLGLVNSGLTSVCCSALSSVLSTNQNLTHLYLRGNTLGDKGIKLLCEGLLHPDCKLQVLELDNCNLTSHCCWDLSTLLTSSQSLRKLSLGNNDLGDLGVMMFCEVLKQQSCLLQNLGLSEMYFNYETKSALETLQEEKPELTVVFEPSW

| SMILES | IC50 (NLRP3 [1]; [3]) [nM] | IC50 (NLRP3 [2]; [4]) [nM] | other results |
| --- | --- | --- | --- |
| FC(F)(F)c1ccc(-c2nnc(NCC3CCCO3)c3ccccc23)cc1 (stereo not shown) [Compound 11, N-(tetrahydrofuran-2-ylmethyl)-4-[4-(trifluoromethyl)phenyl]phthalazin-1-amine] | < 300 | < 300 | – |
| Clc1ccc(-c2nnc(OC[C@H]3CCCO3)c3ccncc23)cc1 [Compound 4, (R)-4-(4-chlorophenyl)-1-((tetrahydrofuran-2-yl)methoxy)pyrido[3,4-d]pyridazine] | – | 300 to 500 | – |
| Brc1ccc(-c2ccc(NCC3CCCO3)nn2)cc1 (stereo not shown) | – | – | IC50 (NLRP3 [1]; [5]): 3800 nM |
| Clc1ccc(-c2ccc(NCC3CCCO3)nn2)cc1 (stereo not shown) [drawing 169] | – | – | IC50 (NLRP3 [1]; [5]): 64000 nM |
| Clc1ccc(-c2nnc(NCC3CCCOC3)c3ccccc23)cc1 (stereo not shown) [Compound 9, 4-(4-chlorophenyl)-N-(tetrahydropyran-3-ylmethyl)phthalazin-1-amine] | – | 500 to 1000 | – |
| Clc1ccc(-c2nnc(NCC3CCCO3)c3ccncc23)cc1 (single isomer, unassigned) | – | – | IC50 (NLRP3 [1]; [6]): 2900 nM |
| CC1(CNc2nnc(-c3ccc(Cl)cc3)c3ccccc23)CCCO1 (stereo not shown) [Compound 8, 4-(4-chlorophenyl)-N-[(2-methyltetrahydrofuran-2-yl)methyl]phthalazin-1-amine] | – | < 300 | – |
| OCCNc1nnc(-c2ccc(Cl)cc2)c2ccccc12 [Compound 16, 2-[[4-(4-chlorophenyl)phthalazin-1-yl]amino]ethanol] | – | 500 to 1000 | – |
| Clc1ccc(-c2ccc(NCC3CCCO3)nn2)cc1 (stereo not shown) [drawing 171] | – | – | IC50 (NLRP3 [1]; [6]): 64000 nM; IC50 (NLRP3 [2]; [6]): > 50000 nM |
| Clc1ccc(-c2nnc(NCC3CCCO3)c3ccncc23)cc1 (stereo not shown) [Compound 15, 4-(4-chlorophenyl)-N-(tetrahydrofuran-2-ylmethyl)pyrido[3,4-d]pyridazin-1-amine] | > 1000 | 500 to 1000 | – |
| COCCNc1nnc(-c2ccc(Cl)cc2)c2ccccc12 [Compound 18, 4-(4-chlorophenyl)-N-(2-methoxyethyl)phthalazin-1-amine] | – | < 300 | – |
| Clc1ccc(-c2nnc(NC[C@@H]3CCCO3)c3ccncc23)cc1 [Compound 2, (S)-4-(4-chlorophenyl)-N-((tetrahydrofuran-2-yl)methyl)pyrido[3,4-d]pyridazin-1-amine] | – | < 300 | – |
| Brc1ccc(-c2nnc(NCC3CCCO3)c3ccccc23)cc1 (stereo not shown) [Compound 7, 4-(4-bromophenyl)-N-(tetrahydrofuran-2-ylmethyl)phthalazin-1-amine] | < 300 | > 1000 | – |
| Clc1ccc(-c2nnc(NCC3CCCCO3)c3ccccc23)cc1 (stereo not shown) [Compound 17, 4-(4-chlorophenyl)-N-(tetrahydropyran-2-ylmethyl)phthalazin-1-amine] | – | > 1000 | – |
| Brc1ccc(-c2nnc(NCC3CCCO3)c3ccccc23)cc1 (stereo not shown) [drawing 168] | – | – | IC50 (NLRP3 [1]; [5]): 190 nM |
| Clc1ccc(-c2nnc(OC[C@H]3CCCO3)c3cnccc23)cc1 [Compound 3, (R)-1-(4-chlorophenyl)-4-((tetrahydrofuran-2-yl)methoxy)pyrido[3,4-d]pyridazine] | – | 300 to 500 | – |
| Cc1cc(Cl)ccc1-c1nnc(NCC2CCCO2)c2ccccc12 (stereo not shown) [Compound 20, 4-(4-chloro-2-methyl-phenyl)-N-(tetrahydrofuran-2-ylmethyl)phthalazin-1-amine] | 300 to 500 | 300 to 500 | – |
| Clc1ccc(-c2nnc(NCC3CCOCC3)c3ccccc23)cc1 [Compound 10, 4-(4-chlorophenyl)-N-(tetrahydropyran-4-ylmethyl)phthalazin-1-amine] | – | > 1000 | – |
| CN(CC1CCCO1)c1nnc(-c2ccc(Cl)cc2)c2ccccc12 (stereo not shown) [Compound 19, 4-(4-chlorophenyl)-N-methyl-N-(tetrahydrofuran-2-ylmethyl)phthalazin-1-amine] | – | 300 to 500 | – |
| CC1(CNc2ccc(-c3ccc(Br)cc3)nn2)CCCO1 (stereo not shown) [Compound 6, 6-(4-bromophenyl)-N-[(2-methyltetrahydrofuran-2-yl)methyl]pyridazin-3-amine] | > 1000 | < 300 | – |

Now from value to compound, other results behind:

| IC50 (NLRP3 [1]; [3]) [nM] | IC50 (NLRP3 [2]; [4]) [nM] | SMILES | other results |
| --- | --- | --- | --- |
| < 300 | – | CN1CCC[C@H]1CNc1nnc(-c2ccc(Cl)cc2O)c2ccncc12 [Compound 93, (S)-5-chloro-2-(4-(((1-methylpyrrolidin-2-yl)methyl)amino)pyrido[3,4-d]pyridazin-1-yl)phenol] | – |
| < 300 | – | Oc1cc(Cl)ccc1-c1nnc(NC[C@H]2CCC(F)(F)C2)c2cnccc12 (single isomer, unassigned) [Compound 91] | – |
| < 300 | – | CC(C)(O)CNc1nnc(-c2ccc(Cl)cc2O)c2ccncc12 [Compound 82, 5-chloro-2-(4-((2-hydroxy-2-methylpropyl)amino)pyrido[3,4-d]pyridazin-1-yl)phenol] | – |
| < 300 | – | Oc1cc(Cl)ccc1-c1nnc(N[C@H]2CCOC2)c2cnccc12 [Compound 89, (S)-5-chloro-2-(4-((tetrahydrofuran-3-yl)amino)pyrido[3,4-d]pyridazin-1-yl)phenol] | – |
| – | 500 to 1000 | CC1COC(CNc2nnc(-c3ccc(Cl)cc3)c3ccccc23)C1 (stereo not shown) [Compound 22, 4-(4-chlorophenyl)-N-[(4-methyltetrahydrofuran-2-yl)methyl]phthalazin-1-amine] | – |
| 300 to 500 | < 300 | Clc1ccc(-c2nnc(NC[C@H]3CCCO3)c3cc(Cl)ccc23)cc1 (racemic) [Compound 21, 7-chloro-4-(4-chlorophenyl)-N-[[rac-(2R)-tetrahydrofuran-2-yl]methyl]phthalazin-1-amine] | – |
| < 300 | – | COC(C)(C)CNc1nnc(-c2ccc(Cl)cc2O)c2ccncc12 [Compound 83, 5-chloro-2-(4-((2-methoxy-2-methylpropyl)amino)pyrido[3,4-d]pyridazin-1-yl)phenol] | – |
| 500 to 1000 | > 1000 | Clc1ccc(-c2nnc(NCC3COCCO3)c3ccccc23)cc1 (single isomer, unassigned) [Compound 23] | – |
| – | < 300 | Clc1ccc(-c2nnc(NCC3COCCO3)c3ccccc23)cc1 (single isomer, unassigned) [Compound 24] | – |
